# Data: patent US20030181334A1, “Herbicidal method” (priority 2001, published 2003)
# Tests used:
# [1] = test system: Amaranthus retroflexus, Abutilon theophrasti, Alopecurus myosuroides, Avena fatua, Brassica rapa and Echinochloa crus-galli; assay: Pre-emergence and post-emergence effect on weeds; assay type: in vivo; details: 500 g/ha or less; pre- or post-emergence application; one or more of the weed species; two weeks after treatment
# Text: Pre-Emergence Effect on Weeds Seed of various broad-leaf and grass weed species were sown and compound of formula (I), dissolved in a mixture of acetone and water, was applied at a rate of 500 g/ha or less to the soil surface. The weed species used were Amaranthus retroflexus, Abutilon theophrasti, Alopecurus myosuroides, Avena fatua, Brassica rapa and Echinochloa crus-galli. Post-Emergence Effect on Weeds Seed of the weed species Amaranthus retroflexus, Abutilon theophrasti, Alopecurus myosuroides, Avena fatua, Brassica rapa and Echinochloa crus-galli were sown in soil and grown up to a 1-3 leaves stage. A post-emergence application of compound of formula (I), dissolved in a mixture of acetone and water, was applied at a rate of 500 g/ha or less. Two weeks after treatment in the above test methods, weed control was assessed as a percentage reduction in plant growth, in comparison with untreated control.
SMILES,melting point,herbicidal activity (weed control assessed as percentage reduction in plant growth in comparison with untreated control) [1]
"N#Cc1cc(C#N)cc(Oc2cccc(Oc3ccnc(Cl)n3)c2)c1 [Compound 1, 5-[3-(2-chloropyrimidin-4-yloxy)phenoxy]isophthalonitrile]",–,very good herbicidal activity
"N#Cc1cccc(Oc2cc(C#N)cc(C#N)c2)c1 [Compound 42, 5-(3-cyanophenoxy)isophthalonitrile]",–,very good herbicidal activity
"N#Cc1cc(C#N)cc(Oc2cccc(OC(F)(F)C(F)F)c2)c1 [Compound 44, 5-(3-[1,1,2,2-tetrafluoroethoxy]phenoxy)isophthalonitrile]",–,very good herbicidal activity
"N#Cc1cc(C#N)cc(Oc2cccc(O)c2)c1 [Compound 49, 5-(3-hydroxyphenoxy)isophthalonitrile]",143 °C,–

# Continued, in another order:
melting point,SMILES,herbicidal activity (weed control assessed as percentage reduction in plant growth in comparison with untreated control) [1]
156 °C,"N#Cc1cc(C#N)cc(Oc2nccc(Oc3cc(Cl)cc(Cl)c3)n2)c1 [Compound 83, 5-[4-(3,5-dichlorophenoxy)pyrimidin-2-yloxy] isophthalonitrile]",–
196 °C,"N#Cc1cc(C#N)cc(Oc2ccnc(Oc3cc(Cl)cc(Cl)c3)n2)c1 [Compound 84, 5-[2-(3,5-dichlorophenoxy)pyrimidin-4-yloxy]isophthalonitrile]",–
212 to 213 °C,"N#Cc1cc(C#N)cc(Oc2cccc(Oc3cc(C#N)cc(C#N)c3)c2)c1 [Compound 90, 5-[3-(3,5-dicyanophenoxy)phenoxy]isophthalonitrile]",–
